The target in assay [1] is T1, MAP kinase-activated protein kinase 2 (Homo sapiens, UniProt P49137). Description: Inhibition of human recombinant phospho-MK2 (36-400) by HTRF assay.
Assay [2] deals with T1, MAP kinase-activated protein kinase 2. Kind of assay: Displacement of [8-3H]ATP from human recombinant MK2 (36-400) by scintillation proximity assay.
For assay [3] the target is unchanged. Description: Displacement of [8-3H]ATP from human recombinant MK2 (41-364) by scintillation proximity assay.

The source of these data is ChEMBL document CHEMBL1153133, “2,4-Diaminopyrimidine MK2 inhibitors. Part I: Observation of an unexpected inhibitor binding mode” (Bioorg Med Chem Lett, 2010).

A word on the IC50: it is the point on the concentration scale where inhibition reaches its midpoint.

T1 sequence (P49137 whole entry): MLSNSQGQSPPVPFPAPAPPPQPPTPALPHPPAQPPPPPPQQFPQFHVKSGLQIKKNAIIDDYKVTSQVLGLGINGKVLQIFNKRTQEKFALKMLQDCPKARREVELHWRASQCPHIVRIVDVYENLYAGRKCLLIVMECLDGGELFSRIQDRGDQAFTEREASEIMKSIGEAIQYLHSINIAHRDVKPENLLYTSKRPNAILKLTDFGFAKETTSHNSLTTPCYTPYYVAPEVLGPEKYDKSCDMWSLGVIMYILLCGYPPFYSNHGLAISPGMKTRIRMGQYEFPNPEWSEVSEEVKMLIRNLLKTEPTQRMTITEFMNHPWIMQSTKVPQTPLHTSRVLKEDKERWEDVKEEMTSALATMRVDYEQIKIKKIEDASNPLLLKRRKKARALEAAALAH

Regarding `Nc1ncnc2c1ncn2[C@@H]1O[C@H](COP(=O)(O)OP(=O)(O)OP(=O)(O)O)[C@@H](O)[C@H]1O` (single isomer, unassigned) [ADENOSINE TRIPHOSPHATE], the figures for the half-inhibitory concentration (IC50) in assay [1], in assay [2] and in assay [3] were 2.8 µM, 6.3 µM and 12 µM, respectively.
